Tested on: growth plates of proximal tibiae of mice
Assay: Growth plate senescence and longitudinal bone growth in mice
Assay type: in vivo
Description: Animals. Cxxc5^−/− mice were established in a previous study. See e.g., Kim H. Y. et al. (2015), CXXC5 is a negative feedback regulator of the Wnt/beta-catenin pathway involved in osteoblast differentiation. CELL DEATH DIFFER 22: 912-920. To manipulate growth plate senescence by estrogen, 3-week-old […] Cxxc5^−/− male mice received weekly intramuscular (i.m.) injections of either 70 μg/kg estradiol (E2) cypionate (Sigma-Aldrich) or vehicle (cottonseed oil) for 3 weeks. To investigate the effects of KY19382 treatment on longitudinal bone growth, C57BL/6 male mice were purchased from KOATECH (Gyeonggido, Korea). KY19382 (0.1 ing/kg) was administered daily by intraperitoneal (i.p.) injection to 3- and 7-week-old mice for 2 weeks or to 3-week-old mice for 10 weeks. For BrdU labeling experiments, mice were i.p. injected with 50 mg/kg BrdU (Sigma-Aldrich) before 24 hours to sacrifice. All animal procedures were approved by the Institutional Animal Care and Use Committee (IACUC) of Yonsei University (Korea) and conducted based on the guidelines of the Korean Food and Drug Administration.
Radiographic and histochemical analyses. Plain radiographs were taken using an X-ray apparatus (KODAK DXS 4000 Pro SYSTEM; Carestream Health Rochester, N.Y.). The tissues were fixed in 4% paraformaldehyde (PFA), decalcified in 10% EDTA (pH 7.4), dehydrated, embedded in paraffin, and sectioned to 4 μm thickness (Leica Microsystems, Wetzlar, Germany). The tissues sections were rehydrated and used for further analyses including H&E, TRAP, and itnmunohistochemical (IHC) staining. To perform IHC staining, the sections were incubated with citrate buffer (pH 6.0) at 80° C. for 30 minutes, with 0.05% trypsin working solution (pH 7.8) for 30 minutes at 37° C., or with 0.5% pepsin (Sigma-Aldrich) for 15 minutes at 37° C. Then, the sections were blocked with 5% normal goat serum (NGS; Vector Laboratories, Burlingame, Calif.) and 0.3% triton-x-100 in PBS for 1 hour at room temperature. For 3,3′-diaminobensidine (DAB) staining, the sections were incubated with 0.345% H2O2 for 15 minutes. Before incubating the sections with mouse primary antibody, mouse IgG was blocked using a M.O.M kit (Vector Laboratories). The sections were incubated at 4° C. overnight with the following primary antibodies: anti-β-catenin (BD Bioscience, San Jose, Calif., #610154; 1:50), anti-CXXC5 l (1:200; lab-made) anti-BrdU (DAKO, Carpinteria, Calif., M0744; 1:200), anti-COL2A1 (ThermoFisher Scientific, MA, PAS-11462; 1:100), anti-Ki67 (Abcam, Cambridge, UK, ab15580; 1:200), and anti-RUNX2 (Abeam, ab23981; 1:200). Then, the sections were incubated at room temperature for 1 hour with biotinylated anti-mouse (Vector Laboratories, BA-9200; 1:200) or biotinylated anti-rabbit (Vector Laboratories, BA-1000; 1:200) secondary antibodies. The sections were then incubated in avidin-biotin complex solutions (Vector Laboratories), stained with a DAB kit (Vector Laboratories) for 3-30 minutes, and counterstained with methyl green (Sigma-Aldrich). All incubations were conducted in humid chambers. […] For fluorescence staining, the sections were incubated with primary antibody at 4° C. overnight, followed by incubation with anti-mouse Alexa Fluor 488 (ThermoFisher Scientific, A11008; 1:200) or anti-rabbit Alex Fluor 555 (ThermoFisher Scientific, A21428; 1:200) secondary antibodies at room temperature for 1 hour. The sections were then counterstained with DAPI (Sigma-Aldrich) for 5 minutes and mounted in Gel/Mount media (Biomeda Corporation). All incubations were conducted in dark humid chambers. The fluorescent signals were visualized using a LSM700 META confocal microscope (Carl Zeiss Inc., Thornwood, N.Y.) at excitation wavelengths of 488 nm (Alexa Fluor 488), 543 nm (Alexa Fluor 555), and 405 nm (DAPI).
Immunoblot analyses. […] Protein samples were separated on a 8-12% sodium dodecylsulfate polyacrylamide gel electrophoresis (SDS-PAGE) and transferred to a nitrocellulose membrane (Whatman). […]

[1] = 3-week-old mice, 0.1 mg/kg daily for 2 weeks
[2] = 7-week-old mice, 0.1 mg/kg i.p. daily for 2 weeks

Row | Molecule | structural senescence of the tibial growth plate (Cxxc5−/− mice, E2 cypionate 70 μg/kg i.m. once a week for 3 weeks) | length of tibiae (0.1 mg/kg daily for 10 weeks, mice from 3 to 13 weeks of age, vs vehicle) | height of each growth plate zone and BrdU-positive cells [1] | β-catenin-expressing chondrocytes [1] | number of TRAP-positive foci in the growth plate/trabecular interface (3-week-old mice, 0.1 mg/kg daily for 2 weeks, vs vehicle) | nuclear β-catenin in growth plate chondrocytes [2] | numbers of proliferative and hypertrophic chondrocytes per column (BrdU- and RUNX2-positive cells) [2] | total growth plate height, monitored by COL2A1 immunostaining [2] | β-catenin and chondrogenic markers (COL2A1, RUNX2, MMP13) in the growth plate, immunoblot [2] | TRAP-positive foci (mice treated from 7 to 9 weeks of age, 0.1 mg/kg, vs vehicle)
1 | 17β-estradiol [Compound E2] | hardly observed |  |  |  |  |  |  |  |  | 
2 | CO/N=C1/C(=C2/C(=O)Nc3cc(Cl)c(Cl)cc32)Nc2ccccc21 [KY19382, 5,6-dichloroindirubin-3′-methoxime] |  | significantly increased | elevated | increased | not different | dramatically increased | increased numbers | significantly increased | increased | elevated
